Experimental data from patent US11358953B2, “Functionalized peptides as antiviral agents” (ENANTA PHARMACEUTICALS, INC., priority 2020, dated 2022).

Target: SARS-CoV-2 3CL-protease (Severe acute respiratory syndrome coronavirus 2 (2019-nCoV) (SARS-CoV-2), UniProt P0DTD1)
Test: SARS-CoV-2 3C-like (3CL) protease fluorescence assay (FRET)
Format: biochemical
Details: recombinant SARS-CoV-2 3CL-protease 10 nM, 30 min preincubation at RT, substrate 40 μM, duplicate

| SMILES | IC50 |
| --- | --- |
| N#C[C@H](C[C@@H]1CCNC1=O)NC(=O)[C@@H]1[C@H]2CCC[C@H]2CN1C(=O)c1cc2c(F)cc(F)cc2[nH]1 [Ex13, (1S,3aR,6aS)—N—((S)-1-cyano-2-((S)-2-oxopyrrolidin-3-yl)ethyl)-2-(4,6-difluoro-1H-indole-2-carbonyl)octahydrocyclopenta[c]pyrrole-1-carboxamide] | 100 to 1000 nM |
| N#C[C@H](C[C@@H]1CCNC1=O)NC(=O)[C@@H]1[C@H]2CCC[C@H]2CN1C(=O)c1cc2c(Cl)cccc2[nH]1 [Ex14, (1S,3aR,6aS)-2-(4-chloro-1H-indole-2-carbonyl)-N—((S)-1-cyano-2-((S)-2-oxopyrrolidin-3-yl)ethyl)octahydrocyclopenta[c]pyrrole-1-carboxamide] | 100 to 1000 nM |
| COc1cccc2[nH]c(C(=O)N3C[C@@H]4CCC[C@@H]4[C@H]3C(=O)N[C@H](C=O)C[C@@H]3CCNC3=O)cc12 [Ex6, (1S,3aR,6aS)-2-(4-methoxy-1H-indole-2-carbonyl)-N—((S)-1-oxo-3-((S)-2-oxopyrrolidin-3-yl)propan-2-yl)octahydrocyclopenta[c]pyrrole-1-carboxamide] | < 100 nM |
| CC(=O)N[C@H](C(=O)N1C[C@H]2[C@@H]([C@H]1C(=O)N[C@H](C#N)C[C@@H]1CCNC1=O)C2(C)C)C(C)(C)C [Ex29, (1R,2S,5S)-3-((S)-2-acetamido-3,3-dimethylbutanoyl)-N—((S)-1-cyano-2-((S)-2-oxopyrrolidin-3-yl)ethyl)-6,6-dimethyl-3-azabicyclo[3.1.0]hexane-2-carboxamide] | < 100 nM |
| CC1(C)[C@@H]2[C@@H](C(=O)N[C@H](C#N)C[C@@H]3CCNC3=O)N(C(=O)c3cc4c(Cl)cccc4[nH]3)C[C@@H]21 [Ex21, (1R,2S,5S)-3-(4-chloro-1H-indole-2-carbonyl)-N—((S)-1-cyano-2-((S)-2-oxopyrrolidin-3-yl)ethyl)-6,6-dimethyl-3-azabicyclo[3.1.0]hexane-2-carboxamide] | 100 to 1000 nM |
| CC(C)(C)[C@H](NC(=O)C1CCCC1)C(=O)N1C[C@H]2[C@@H]([C@H]1C(=O)N[C@H](C#N)C[C@@H]1CCNC1=O)C2(C)C [Ex23, (1R,2S,5S)—N—((S)-1-cyano-2-((S)-2-oxopyrrolidin-3-yl)ethyl)-3-((S)-2-(cyclopentanecarboxamido)-3,3-dimethylbutanoyl)-6,6-dimethyl-3-azabicyclo[3.1.0]hexane-2-carboxamide] | < 100 nM |
| COc1cccc2[nH]c(C(=O)N3C[C@@H]4CCC[C@@H]4[C@H]3C(=O)N[C@@H](C[C@@H]3CCNC3=O)C(=O)CO)cc12 [Ex10, (1S,3aR,6aS)—N—((S)-4-hydroxy-3-oxo-1-((S)-2-oxopyrrolidin-3-yl)butan-2-yl)-2-(4-methoxy-1H-indole-2-carbonyl)octahydrocyclopenta[c]pyrrole-1-carboxamide] | 100 to 1000 nM |
| CC1(C)[C@@H]2[C@@H](C(=O)N[C@H](C#N)C[C@@H]3CCNC3=O)N(C(=O)c3cc4cc(F)cc(F)c4[nH]3)C[C@@H]21 [Ex16, (1R,2S,5S)—N—((S)-1-cyano-2-((S)-2-oxopyrrolidin-3-yl)ethyl)-3-(5,7-difluoro-1H-indole-2-carbonyl)-6,6-dimethyl-3-azabicyclo[3.1.0]hexane-2-carboxamide] | 100 to 1000 nM |
| COc1cccc2[nH]c(C(=O)N3C[C@@H]4CCC[C@@H]4[C@H]3C(=O)N[C@H](C#N)C[C@@H]3CCCNC3=O)cc12 [Ex7, (1S,3aR,6aS)—N—((S)-1-cyano-2-((S)-2-oxopiperidin-3-yl)ethyl)-2-(4-methoxy-1H-indole-2-carbonyl)octahydrocyclopenta[c]pyrrole-1-carboxamide] | < 100 nM |
| CC(C)(C)[C@H](NC(=O)C1CCCCC1)C(=O)N1C[C@H]2[C@@H]([C@H]1C(=O)N[C@H](C#N)C[C@@H]1CCNC1=O)C2(C)C [Ex25, (1R,2S,5S)—N—((S)-1-cyano-2-((S)-2-oxopyrrolidin-3-yl)ethyl)-3-((S)-2-(cyclohexanecarboxamido)-3,3-dimethylbutanoyl)-6,6-dimethyl-3-azabicyclo[3.1.0]hexane-2-carboxamide] | < 100 nM |
